Molecular target: human PDE10A (Homo sapiens (Human), UniProt Q9Y233)
Assay: human PDE10A full length Scintillation Proximity Assay (SPA)
Format: biochemical
Conditions: 50 nM cGMP and 50 nM [3H]-cGMP, 20 minutes at room temperature, read-out: PDE10A inhibition IC50
Method: The following test was carried out in order to determine the activity of the compounds of the present invention. PDE10 activity of the compounds of the present invention was determined using a Scintillation Proximity Assay (SPA)-based method similar to the one previously described (Fawcett, L. et al., Proc Natl Acad Sci USA (2000) 97(7):3702-3707).
The human PDE10A full length assay was performed in 96-well micro titer plates. The reaction mixture of 50 μl contained 20 mM HEPES pH=7.5/10 mM MgCl2/0.05 mg/ml BSA (Sigma cat. # A-7906), 50 nM cGMP (Sigma, cat. # G6129) and 50 nM [^3H]-cGMP (GE Healthcare, cat. # TRK392 S.A. 13.2Ci/mmol), 3.75 ng/well PDE10A enzyme (Enzo Life Science, Lausen, Switzerland cat # SE-534) with or without a specific test compound. A range of concentrations of the potential inhibitor was used to generate data for calculating the concentration of inhibitor resulting in 50% of the effect (e.g. IC50, the concentration of the competitor inhibiting PDE10A activity by 50%). Non-specific activity was tested without the enzyme. The reaction was initiated by the addition of the substrate solution (cGMP and [^3H]-cGMP) and allowed to progress for 20 minutes at room temperature. The reaction was terminated by adding 25 μA of YSi-SPA scintillation beads (GE Healthcare, cat. # RPNQ0150) in 18 mM zinc sulphate solution (stop reagent). After 1 h under shaking, the plate was centrifuged one minute at 170 g to allow beads to settle. Afterwards, radioactive counts were measured on a Perkin Elmer TopCount Scintillation plate reader.

Sequence of human PDE10A (Q9Y233 other isoform, or with tags, fused parts or gaps): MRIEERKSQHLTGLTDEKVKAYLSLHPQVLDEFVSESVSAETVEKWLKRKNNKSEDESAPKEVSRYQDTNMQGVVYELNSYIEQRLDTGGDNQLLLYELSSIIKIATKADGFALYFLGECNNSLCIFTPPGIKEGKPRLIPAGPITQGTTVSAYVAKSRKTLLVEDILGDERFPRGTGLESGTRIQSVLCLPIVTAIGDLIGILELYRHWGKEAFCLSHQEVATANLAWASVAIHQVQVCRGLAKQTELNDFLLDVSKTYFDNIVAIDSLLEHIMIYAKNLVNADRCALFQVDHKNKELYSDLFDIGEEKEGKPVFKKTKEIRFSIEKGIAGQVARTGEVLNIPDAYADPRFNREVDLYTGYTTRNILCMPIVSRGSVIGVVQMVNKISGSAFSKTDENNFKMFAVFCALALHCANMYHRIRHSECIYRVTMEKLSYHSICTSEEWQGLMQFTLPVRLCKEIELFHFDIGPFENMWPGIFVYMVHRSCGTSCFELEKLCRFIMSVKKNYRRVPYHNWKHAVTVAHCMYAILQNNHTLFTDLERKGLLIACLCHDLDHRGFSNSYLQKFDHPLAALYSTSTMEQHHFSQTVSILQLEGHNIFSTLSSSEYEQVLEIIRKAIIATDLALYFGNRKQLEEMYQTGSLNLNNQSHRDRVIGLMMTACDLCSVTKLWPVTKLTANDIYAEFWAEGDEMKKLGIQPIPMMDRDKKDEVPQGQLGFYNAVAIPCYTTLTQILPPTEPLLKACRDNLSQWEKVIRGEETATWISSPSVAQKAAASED

| IC50 [µM] | Compound |
| --- | --- |
| 0.033 | O=C(Nc1cn(-c2ccccn2)cn1)c1nc(C2CC2)ccc1Nc1cncnc1 [Example 52, 6-Cyclopropyl-3-(pyrimidin-5-ylamino)-pyridine-2-carboxylic acid (1-pyridin-2-yl-1H-imidazol-4-yl)-amide] |
| 0.005 | O=C(Nc1cc(-c2ccccn2)nn1CCc1ccccc1)c1nc(C2CC2)ccc1Nc1cncnc1 [Example 17, 6-Cyclopropyl-3-(pyrimidin-5-ylamino)-pyridine-2-carboxylic acid (2-phenethyl-5-pyridin-2-yl-2H-pyrazol-3-yl)-amide] |
| 0.004 | Cn1nc(-c2ccccn2)cc1NC(=O)c1nc(C2CC2)cnc1Nc1cncnc1 [Example 21, 6-Cyclopropyl-3-(pyrimidin-5-ylamino)-pyrazine-2-carboxylic acid (2-methyl-5-pyridin-2-yl-2H-pyrazol-3-yl)-amide] |
| 0.001 | O=C(Nc1cc(-c2ccccn2)nn1CC1CCCC1)c1nc(C2CC2)ccc1Nc1cncnc1 [Example 31, 6-Cyclopropyl-3-(pyrimidin-5-ylamino)-pyridine-2-carboxylic acid (2-cyclopentylmethyl-5-pyridin-2-yl-2H-pyrazol-3-yl)-amide] |
| 0.122 | O=C(Nc1cc(-c2ccccc2)nn1CCO)c1nc(C2CC2)ccc1Nc1cncnc1 [Example 9, 6-Cyclopropyl-3-(pyrimidin-5-ylamino)-pyridine-2-carboxylic acid [2-(2-hydroxy-ethyl)-5-phenyl-2H-pyrazol-3-yl]-amide] |
| 2.45 | O=C(Nc1cc(-c2ccc(F)cc2)no1)c1nc(C2CC2)ccc1Nc1cncnc1 [Example 58, 6-Cyclopropyl-3-(pyrimidin-5-ylamino)-pyridine-2-carboxylic acid [3-(4-fluoro-phenyl)-isoxazol-5-yl]-amide] |
| 0.09 | Cc1ccc(Nc2cncnc2)c(C(=O)Nc2ccn(-c3ccccc3)n2)n1 [Example 1, 6-Methyl-3-(pyrimidin-5-ylamino)-pyridine-2-carboxylic acid (1-phenyl-1H-pyrazol-3-yl)-amide] |
| 0.023 | O=C(Nc1ccn(-c2ccc(F)cc2)n1)c1nc(C2CC2)ccc1Nc1cncnc1 [Example 6, 6-Cyclopropyl-3-(pyrimidin-5-ylamino)-pyridine-2-carboxylic acid [1-(4-fluoro-phenyl)-1H-pyrazol-3-yl]-amide] |
| 0.004 | CN1CCC(n2nc(-c3ccccn3)cc2NC(=O)c2nc(C3CC3)ccc2Nc2cncnc2)CC1 [Example 43, 6-Cyclopropyl-3-(pyrimidin-5-ylamino)-pyridine-2-carboxylic acid [2-(1-methyl-piperidin-4-yl)-5-pyridin-2-yl-2H-pyrazol-3-yl]-amide] |
| 0.002 | CCCn1nc(-c2ccccn2)cc1NC(=O)c1nc(C2CC2)ccc1Nc1cncnc1 [Example 23, 6-Cyclopropyl-3-(pyrimidin-5-ylamino)-pyridine-2-carboxylic acid (2-propyl-5-pyridin-2-yl-2H-pyrazol-3-yl)-amide] |
| 0.004 | Cc1cnc(Nc2cncnc2)c(C(=O)Nc2cc(-c3ccccn3)nn2CCO)n1 [Example 36, 6-Methyl-3-(pyrimidin-5-ylamino)-pyrazine-2-carboxylic acid [2-(2-hydroxy-ethyl)-5-pyridin-2-yl-2H-pyrazol-3-yl]-amide] |
| < 0.001 | O=C(Nc1cc(-c2ccc3ccccc3n2)nn1CCO)c1nc(C2CC2)ccc1Nc1cncnc1 [Example 25, 6-Cyclopropyl-3-(pyrimidin-5-ylamino)-pyridine-2-carboxylic acid [2-(2-hydroxy-ethyl)-5-quinolin-2-yl-2H-pyrazol-3-yl]-amide] |
| 0.004 | O=C(Nc1cc(-c2ccccn2)no1)c1nc(C2CC2)ccc1Nc1cncnc1 [Example 51, 6-Cyclopropyl-3-(pyrimidin-5-ylamino)-pyridine-2-carboxylic acid (3-pyridin-2-yl-isoxazol-5-yl)-amide] |
| 0.002 | O=C(Nc1cc(-c2ccc(Cl)cn2)nn1CCO)c1nc(C2CC2)ccc1Nc1cncnc1 [Example 26, 6-Cyclopropyl-3-(pyrimidin-5-ylamino)-pyridine-2-carboxylic acid [5-(5-chloro-pyridin-2-yl)-2-(2-hydroxy-ethyl)-2H-pyrazol-3-yl]-amide] |
| 0.002 | CCc1ccc(Nc2cncnc2)c(C(=O)Nc2cc(-c3ccccn3)nn2C)n1 [Example 19, 6-Ethyl-3-(pyrimidin-5-ylamino)-pyridine-2-carboxylic acid (2-methyl-5-pyridin-2-yl-2H-pyrazol-3-yl)-amide] |
| 0.002 | Cn1cncc1Cn1nc(-c2ccccn2)cc1NC(=O)c1nc(C2CC2)ccc1Nc1cncnc1 [Example 37, 6-Cyclopropyl-3-(pyrimidin-5-ylamino)-pyridine-2-carboxylic acid [2-(3-methyl-3H-imidazol-4-ylmethyl)-5-pyridin-2-yl-2H-pyrazol-3-yl]-amide] |
| 0.013 | CC(C)(C)n1nc(-c2ccccn2)cc1NC(=O)c1nc(C2CC2)ccc1Nc1cncnc1 [Example 18, 6-Cyclopropyl-3-(pyrimidin-5-ylamino)-pyridine-2-carboxylic acid (2-tert-butyl-5-pyridin-2-yl-2H-pyrazol-3-yl)-amide] |
| 0.17 | N#CCCn1nc(-c2ccccn2)cc1NC(=O)c1nc(C2CC2)ccc1Nc1cncnc1 [Example 33, 6-Cyclopropyl-3-(pyrimidin-5-ylamino)-pyridine-2-carboxylic acid [2-(2-cyano-ethyl)-5-pyridin-2-yl-2H-pyrazol-3-yl]-amide] |
| 0.024 | CN(C)CCn1nc(NC(=O)c2nc(C3CC3)ccc2Nc2cncnc2)cc1-c1ccccn1 [Example 42, 6-Cyclopropyl-3-(pyrimidin-5-ylamino)-pyridine-2-carboxylic acid [1-(2-dimethylamino-ethyl)-5-pyridin-2-yl-1H-pyrazol-3-yl]-amide] |
| 0.021 | Cc1cnc(Nc2cncnc2)c(C(=O)Nc2cc(-c3ccccn3)nn2C)n1 [Example 35, 6-Methyl-3-(pyrimidin-5-ylamino)-pyrazine-2-carboxylic acid (2-methyl-5-pyridin-2-yl-2H-pyrazol-3-yl)-amide] |
| 0.028 | CC(C)Cc1ncc(Nc2cncnc2)c(C(=O)Nc2cc(-c3ccccn3)nn2C)n1 [Example 61, 2-Isobutyl-5-(pyrimidin-5-ylamino)-pyrimidine-4-carboxylic acid (2-methyl-5-pyridin-2-yl-2H-pyrazol-3-yl)-amide] |
| 0.001 | O=C(Nc1ccc(-c2ccccn2)s1)c1nc(C2CC2)ccc1Nc1cncnc1 [Example 50, 6-Cyclopropyl-3-(pyrimidin-5-ylamino)-pyridine-2-carboxylic acid (5-pyridin-2-yl-thiophen-2-yl)-amide] |
| 0.187 | O=C(Nc1cn(-c2ccccn2)cn1)c1nc(C2CC2)cnc1Nc1cncnc1 [Example 66, 6-Cyclopropyl-3-(pyrimidin-5-ylamino)-pyrazine-2-carboxylic acid (1-pyridin-2-yl-1H-imidazol-4-yl)-amide] |
| 6.38 | O=C(Nc1nnc(-c2ccc(F)cc2)s1)c1nc(C2CC2)ccc1Nc1cncnc1 [Example 45, 6-Cyclopropyl-3-(pyrimidin-5-ylamino)-pyridine-2-carboxylic acid [5-(4-fluoro-phenyl)-[1,3,4]thiadiazol-2-yl]-amide] |
| 1.45 | O=C(Nc1cc(-c2ccc(Cl)cc2)no1)c1nc(C2CC2)ccc1Nc1cncnc1 [Example 56, 6-Cyclopropyl-3-(pyrimidin-5-ylamino)-pyridine-2-carboxylic acid [3-(4-chloro-phenyl)-isoxazol-5-yl]-amide] |
| 0.003 | Cn1nc(-c2cccc(Cl)n2)cc1NC(=O)c1nc(C2CC2)ccc1Nc1cncnc1 [Example 41, 6-Cyclopropyl-3-(pyrimidin-5-ylamino)-pyridine-2-carboxylic acid [5-(6-chloro-pyridin-2-yl)-2-methyl-2H-pyrazol-3-yl]-amide] |
| 0.435 | O=C(Nc1nnc(-c2ccccc2)s1)c1nc(C2CC2)ccc1Nc1cncnc1 [Example 48, 6-Cyclopropyl-3-(pyrimidin-5-ylamino)-pyridine-2-carboxylic acid (5-phenyl-[1,3,4]thiadiazol-2-yl)-amide] |
| 0.005 | COCc1ccc(Nc2cncnc2)c(C(=O)Nc2cc(-c3ccccn3)nn2CCO)n1 [Example 11, 6-Methoxymethyl-3-(pyrimidin-5-ylamino)-pyridine-2-carboxylic acid [2-(2-hydroxy-ethyl)-5-pyridin-2-yl-2H-pyrazol-3-yl]-amide] |
| 0.055 | O=C(Nc1cnn(-c2ccccn2)c1)c1nc(C2CC2)ccc1Nc1cncnc1 [Example 65, 6-Cyclopropyl-3-(pyrimidin-5-ylamino)-pyridine-2-carboxylic acid (1-pyridin-2-yl-1H-pyrazol-4-yl)-amide] |
| 0.001 | CCc1ccc(Nc2cncnc2)c(C(=O)Nc2cc(-c3ccccn3)nn2CCO)n1 [Example 34, 6-Ethyl-3-(pyrimidin-5-ylamino)-pyridine-2-carboxylic acid [2-(2-hydroxy-ethyl)-5-pyridin-2-yl-2H-pyrazol-3-yl]-amide] |
